From US20250051356A1, “RIFABUTIN ANALOGS FOR THE TREATMENT OF DISEASE” (priority 2021, published 2025)
≈ marks a conversion by molar mass, not a printed value. Read-outs that look alike come from different tables or passages of the source.

Tests used:
Assay type in all cases: cell-based
[1] = system: S. aureus (UAMS-1625 strain); experiment: MIC by broth microdilution against S. aureus; conditions: Staphylococcus aureus, read-out: MIC S. aureus
[2] = system: A. baumannii (HUMC1 strain); experiment: MIC by broth microdilution against A. baumannii in RPMI + 10% FCS; conditions: Acinetobacter baumannii, read-out: MIC A. baumannii
[3] = system: M. xenopi (ATCC 19250); experiment: MIC against M. xenopi in CAMHB + ADC; conditions: Mycobacterium xenopi
[4] = system: M. abscessus subsp. abscessus ATCC 19977; experiment: MIC against M. abscessus in Middlebrook 7H9 + ADC; conditions: Mycobacteroides abscessus
[5] = system: M. avium (ATCC 25291); experiment: MIC against M. avium in CAMHB + ADC; conditions: Mycobacterium avium
[6] = system: M. kansasii (ATCC 12478); experiment: MIC against M. kansasii in CAMHB + ADC; conditions: Mycobacterium kansasii
[7] = ATCC19250, ATCC 19250, CAMHB + ADC (5%), read-out: MIC M. xenopi
[8] = ATCC19977, ATCC 19977, 7H9 + ADC, read-out: MIC M. abscessus
[9] = ATCC25291, ATCC 25291, CAMHB + ADC (5%), read-out: MIC M. avium
[10] = ATCC12478, ATCC 12478, CAMHB + ADC (5%), read-out: MIC M. kansasii
[11] = ATCC19250, read-out: MIC M. xenopi
[12] = ATCC19977, read-out: MIC M. abscessus
[13] = ATCC25291, read-out: MIC M. avium
[14] = ATCC12478, read-out: MIC M. kansasii

SMILES	MIC [1] [µg/mL]	MIC ([2]; HUMC1 strain, RPMI + 10% FCS) [µg/mL]	MIC [3, 7] [µg/mL]	MIC [4, 8] [µg/mL]	MIC [5, 9] [µg/mL]	MIC [6, 10] [µg/mL]	MIC [3, 11] [µg/mL]	MIC [2] [µg/mL]	MIC [4, 12] [µg/mL]	MIC [5, 13] [µg/mL]	MIC [6, 14] [µg/mL]
CO[C@H]1/C=C/O[C@@]2(C)Oc3c(C)c(O)c4c(c3C2=O)C2=NC3(CCN(CC(C)C)CC3)NC2=C(NC(=O)/C(C)=C\C=C\[C@H](C)[C@H](O)[C@@H](C)[C@@H](O)[C@@H](C)[C@H](OC(=O)CC(=O)N2CCC3C(CCCN3Cc3ccccc3)C2)[C@@H]1C)C4=O (stereo partly drawn) [Compound 68]	0.5 (≈ 0.453 µM)	0.03	0.125	0.25	0.03	0.001					
CCC(C(=O)O[C@H]1[C@H](C)[C@H](O)[C@H](C)[C@@H](O)[C@@H](C)/C=C/C=C(/C)C(=O)NC2=C3NC4(CCN(CC(C)C)CC4)N=C3c3c(c(O)c(C)c4c3C(=O)[C@@](C)(O/C=C/[C@H](OC)[C@H]1C)O4)C2=O)C(=O)N1CCCN(c2ccc(F)cc2)CC1 (stereo partly drawn) [Compound 79]	0.5 (≈ 0.456 µM)	0.03	0.03	0.125	0.125	0.004					
CO[C@H]1/C=C/OC2(C)Oc3c(C)c(O)c4c(c3C2=O)C2=NC3(CCN(CC(C)C)CC3)NC2=C(NC(=O)/C(C)=C\C=C\[C@H](C)[C@H](O)[C@@H](C)[C@@H](O)[C@@H](C)[C@H](OC(=O)CCC(=O)N2CCC(N(C)c3ccccc3)CC2)[C@@H]1C)C4=O (stereo partly drawn) [Compound 82]	0.5 (≈ 0.464 µM)	0.016	0.03	0.25	0.25	0.016					
CO[C@H]1/C=C/OC2(C)Oc3c(C)c(O)c4c(c3C2=O)C2=NC3(CCN(CC(C)C)CC3)NC2=C(NC(=O)/C(C)=C\C=C\[C@H](C)[C@H](O)[C@@H](C)[C@@H](O)[C@@H](C)[C@H](OC(=O)CCC(=O)N2CCCN(c3ccc(F)cc3)CC2)[C@@H]1C)C4=O (stereo partly drawn) [Compound 83]	0.5 (≈ 0.462 µM)	0.016	0.03	0.25	0.25	0.008					
CO[C@H]1/C=C/OC2(C)Oc3c(C)c(O)c4c(c3C2=O)C2=NC3(CCN(CC(C)C)CC3)NC2=C(NC(=O)/C(C)=C\C=C\[C@H](C)[C@H](O)[C@@H](C)[C@@H](O)[C@@H](C)[C@H](OC(=O)CCCC(=O)N2CCCN(c3ccc(F)cc3)CC2)[C@@H]1C)C4=O (stereo partly drawn) [Compound 86]	0.5 (≈ 0.456 µM)	0.008	0.03	0.125	0.125	0.008					
CO[C@H]1/C=C/O[C@@]2(C)Oc3c(C)c(O)c4c(c3C2=O)C2=NC3(CCN(CC(C)C)CC3)NC2=C(NC(=O)/C(C)=C\C=C\[C@H](C)[C@H](O)[C@@H](C)[C@@H](O)[C@@H](C)[C@H](OC(=O)CC(=O)N2CCN(Cc3ccccc3)CC2)[C@@H]1C)C4=O [Compound 91]	0.25 (≈ 0.238 µM)	0.016	0.03	0.125	0.125	0.001					
CO[C@H]1/C=C/OC2(C)Oc3c(C)c(O)c4c(c3C2=O)C2=NC3(CCN(CC(C)C)CC3)NC2=C(NC(=O)/C(C)=C\C=C\[C@H](C)[C@H](O)[C@@H](C)[C@@H](O)[C@@H](C)[C@H](OC(=O)CC(=O)NC2CCN(Cc3ccccc3)C2)[C@@H]1C)C4=O (stereo partly drawn) [Compound 93]	0.125 (≈ 0.119 µM)	0.008	0.25	0.25	0.5	0.008					
CO[C@H]1/C=C/O[C@@]2(C)Oc3c(C)c(O)c4c(c3C2=O)C2=NC3(CCN(CC(C)C)CC3)NC2=C(NC(=O)/C(C)=C\C=C\[C@H](C)[C@H](O)[C@@H](C)[C@@H](O)[C@@H](C)[C@H](OC(=O)CC(=O)N2CCN(C3Cc5ccccc5C3)CC2)[C@@H]1C)C4=O [Compound 95]	0.5 (≈ 0.465 µM)	0.03	0.03	0.125	0.125	0.002					
CO[C@H]1/C=C/OC2(C)Oc3c(C)c(O)c4c(c3C2=O)C2=NC3(CCN(CC(C)C)CC3)NC2=C(NC(=O)/C(C)=C\C=C\[C@H](C)[C@H](O)[C@@H](C)[C@@H](O)[C@@H](C)[C@H](OC(=O)CC(=O)N2CCN(C3CCCCC3)CC2)[C@@H]1C)C4=O (stereo partly drawn) [Compound 96]	0.125 (≈ 0.12 µM)	0.008		0.25	0.03	0.008	0.125				
CO[C@H]1/C=C/OC2(C)Oc3c(C)c(O)c4c(c3C2=O)C2=NC3(CCN(CC(C)C)CC3)NC2=C(NC(=O)/C(C)=C\C=C\[C@H](C)[C@H](O)[C@@H](C)[C@@H](O)[C@@H](C)[C@H](OC(=O)CC(=O)NCCCN(C)c2ccccc2)[C@@H]1C)C4=O (stereo partly drawn) [Compound 97]	0.25 (≈ 0.241 µM)	0.008	0.06	0.25	0.125	0.004					
CO[C@H]1/C=C/O[C@@]2(C)Oc3c(C)c(O)c4c(c3C2=O)C2=NC3(CCN(CC(C)C)CC3)NC2=C(NC(=O)/C(C)=C\C=C\[C@H](C)[C@H](O)[C@@H](C)[C@@H](O)[C@@H](C)[C@H](OC(=O)CC(=O)N2CCN(c3ccccn3)CC2)[C@@H]1C)C4=O [Compound 99]	0.06 (≈ 0.0579 µM)	0.008	0.125	0.25	0.125	0.004					
CO[C@H]1/C=C/OC2(C)Oc3c(C)c(O)c4c(c3C2=O)C2=NC3(CCN(CC(C)C)CC3)NC2=C(NC(=O)/C(C)=C\C=C\[C@H](C)[C@H](O)[C@@H](C)[C@@H](O)[C@@H](C)[C@H](OC(=O)CC(=O)N2CCC(c3ccccc3)CC2)[C@@H]1C)C4=O (stereo partly drawn) [Compound 101]	0.5 (≈ 0.483 µM)						0.03	0.06	0.125	0.03	0.002
CO[C@H]1/C=C/OC2(C)Oc3c(C)c(O)c4c(c3C2=O)C2=NC3(CCN(CC(C)C)CC3)NC2=C(NC(=O)/C(C)=C\C=C\[C@H](C)[C@H](O)[C@@H](C)[C@@H](O)[C@@H](C)[C@H](OC(=O)CC(=O)N2C3CCC2CC(c2ccccc2)C3)[C@@H]1C)C4=O (stereo partly drawn) [Compound 102]	0.5 (≈ 0.472 µM)				0.03		0.06	0.03	0.25		0.008
CO[C@H]1/C=C/O[C@@]2(C)Oc3c(C)c(O)c4c(c3C2=O)C2=NC3(CCN(CC(C)C)CC3)NC2=C(NC(=O)/C(C)=C\C=C\[C@H](C)[C@H](O)[C@@H](C)[C@@H](O)[C@@H](C)[C@H](OC(=O)CC(=O)N2CCC(c3ccncc3)CC2)[C@@H]1C)C4=O [Compound 104]	0.06 (≈ 0.058 µM)	0.004	0.125	0.25	0.25	0.004					
CO[C@H]1/C=C/O[C@@]2(C)Oc3c(C)c(O)c4c(c3C2=O)C2=NC3(CCN(CC(C)C)CC3)NC2=C(NC(=O)/C(C)=C\C=C\[C@H](C)[C@H](O)[C@@H](C)[C@@H](O)[C@@H](C)[C@H](OC(=O)CC(=O)N2CCC(Nc3ccc(C)cc3)CC2)[C@@H]1C)C4=O [Compound 105]	0.25 (≈ 0.235 µM)						0.03	0.06	0.25	0.125	0.004
COc1cc(NC2CCN(C(=O)CC(=O)O[C@H]3[C@H](C)[C@H](O)[C@H](C)[C@@H](O)[C@@H](C)/C=C/C=C(/C)C(=O)NC4=C5NC6(CCN(CC(C)C)CC6)N=C5c5c(c(O)c(C)c6c5C(=O)[C@@](C)(O/C=C/[C@H](OC)[C@H]3C)O6)C4=O)CC2)cc(OC)c1 [Compound 106]	0.25 (≈ 0.225 µM)	0.008	0.125	0.25	0.5	0.03					
CO[C@H]1/C=C/O[C@@]2(C)Oc3c(C)c(O)c4c(c3C2=O)C2=NC3(CCN(CC(C)C)CC3)NC2=C(NC(=O)/C(C)=C\C=C\[C@H](C)[C@H](O)[C@@H](C)[C@@H](O)[C@@H](C)[C@H](OC(=O)CC(=O)N2CCC(Nc3ccccc3C#N)CC2)[C@@H]1C)C4=O [Compound 107]	0.25 (≈ 0.233 µM)						0.06	0.5	0.125	0.125	0.016
CO[C@H]1/C=C/O[C@@]2(C)Oc3c(C)c(O)c4c(c3C2=O)C2=NC3(CCN(CC(C)C)CC3)NC2=C(NC(=O)/C(C)=C\C=C\[C@H](C)[C@H](O)[C@@H](C)[C@@H](O)[C@@H](C)[C@H](OC(=O)C(C)C(=O)N2CCCN(c3ccc(F)cc3)CC2)[C@@H]1C)C4=O (stereo partly drawn) [Compound 108]	0.25 (≈ 0.231 µM)	0.06	0.06	0.25	0.25	0.008					
CO[C@H]1/C=C/O[C@@]2(C)Oc3c(C)c(O)c4c(c3C2=O)C2=NC3(CCN(CC(C)C)CC3)NC2=C(NC(=O)/C(C)=C\C=C\[C@H](C)[C@H](O)[C@@H](C)[C@@H](O)[C@@H](C)[C@H](OC(=O)CC(=O)N2CCC(Nc3cccnc3)CC2)[C@@H]1C)C4=O [Compound 109]	0.06 (≈ 0.0571 µM)						0.25	0.004	0.25	1	0.03
CO[C@H]1/C=C/O[C@@]2(C)Oc3c(C)c(O)c4c(c3C2=O)C2=NC3(CCN(CC(C)C)CC3)NC2=C(NC(=O)/C(C)=C\C=C\[C@H](C)[C@H](O)[C@@H](C)[C@@H](O)[C@@H](C)[C@H](OC(=O)CC(=O)N2CCC(Nc3ccncc3Cl)CC2)[C@@H]1C)C4=O [Compound 110]	0.125 (≈ 0.115 µM)	0.06			0.25	0.008	0.125		0.125		
